{
  "source": "patent US20110288105A1",
  "about": "“ELTOPRAZINE FOR THE TREATMENT OF L-DOPA-INDUCED DYSKINESIA” (Merz Pharma GmbH & Co. KGaA, priority 2008, published 2011)",
  "key": {"[1]": {"tested_on": "rodent models of depression", "details": "in vivo; cited from earlier work"}, "[2]": {"tested_on": "1-methyl-4-phenyl-1,2,3,6-tetrahydropyridine-treated primates", "details": "monkey studies; Iravani et al. 2003; cited from earlier work"}, "[3]": {"target": "T1, human serotonin HT1a receptor (Homo sapiens, UniProt P08908)", "T1 construct": "expressed in transfected cells; host or cells: CHO-K1", "T1 sequence (P08908 1-422)": "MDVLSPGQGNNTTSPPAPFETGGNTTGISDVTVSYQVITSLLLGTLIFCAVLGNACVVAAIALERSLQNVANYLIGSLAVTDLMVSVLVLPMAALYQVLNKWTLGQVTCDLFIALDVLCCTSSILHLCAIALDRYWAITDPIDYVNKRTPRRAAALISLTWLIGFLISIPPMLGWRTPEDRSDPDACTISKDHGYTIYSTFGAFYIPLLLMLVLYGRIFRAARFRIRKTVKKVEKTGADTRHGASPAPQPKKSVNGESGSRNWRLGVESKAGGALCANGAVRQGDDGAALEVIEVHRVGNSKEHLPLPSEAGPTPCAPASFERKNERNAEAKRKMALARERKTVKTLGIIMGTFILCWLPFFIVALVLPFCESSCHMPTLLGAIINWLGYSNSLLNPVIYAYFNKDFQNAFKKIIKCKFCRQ", "test": "GTPγS assay, agonist testing, 5-HT1a", "type": "biochemical", "details": "human recombinant cell lines; FIG. 1; relevant plasma concentration (<0.5 μM)", "method": "(§1) Eltoprazine was tested for activity on the human serotonin HT1a and 5-HT1b receptors using a GTPγS assay. Recombinant membranes obtained from CHO-K1 cells expressing either the 5-HT1a or 5-HT1b receptors were mixed with GDP (volume:volume) and incubated for at least 15 min on ice. In parallel, GTPγ[35S] was mixed with the beads (volume:volume) just before starting the reaction. The following reagents were successively added in the wells of an Optiplate (Perkin Elmer): 50 μl of test compound, 20 μl of the membranes:GDP mix, 10 μl of assay buffer (for agonist testing) and 20 μl of the GTPγ[35S]:beads mix. The plates were covered with a top seal, shaken on an orbital shaker for 2 min, and then incubated for 1 hour at room temperature. Then the plates were centrifuged for 10 min at 2000 rpm, incubated at room temperature 1 hour and counted for 1 min/well with a PerkinElmer TopCount reader."}, "human 5-HT1b receptor": {"target": "T2, human 5-HT1b receptor (Homo sapiens, UniProt P28222)", "T2 construct": "expressed in transfected cells; host or cells: CHO-K1", "T2 sequence (P28222 whole entry)": "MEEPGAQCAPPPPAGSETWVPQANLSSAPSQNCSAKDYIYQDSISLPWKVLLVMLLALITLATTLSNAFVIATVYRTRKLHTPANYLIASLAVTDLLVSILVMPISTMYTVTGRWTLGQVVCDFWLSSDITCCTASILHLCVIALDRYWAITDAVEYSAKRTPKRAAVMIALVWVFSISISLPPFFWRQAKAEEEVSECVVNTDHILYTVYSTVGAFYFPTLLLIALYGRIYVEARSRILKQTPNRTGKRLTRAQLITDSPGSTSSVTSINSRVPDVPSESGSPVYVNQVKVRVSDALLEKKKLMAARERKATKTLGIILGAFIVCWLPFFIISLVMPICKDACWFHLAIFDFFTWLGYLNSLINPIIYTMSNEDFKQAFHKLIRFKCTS", "test": "GTPγS assay, agonist testing, 5-HT1b", "type": "biochemical", "details": "human recombinant cell lines; FIG. 1; relevant plasma concentration (<0.5 μM)", "method": "as §1"}, "[4]": {"target": "T3, 5-HT2a recombinant receptor (Homo sapiens, UniProt P28223)", "T3 construct": "expressed in transfected cells", "T3 sequence (P28223 whole entry)": "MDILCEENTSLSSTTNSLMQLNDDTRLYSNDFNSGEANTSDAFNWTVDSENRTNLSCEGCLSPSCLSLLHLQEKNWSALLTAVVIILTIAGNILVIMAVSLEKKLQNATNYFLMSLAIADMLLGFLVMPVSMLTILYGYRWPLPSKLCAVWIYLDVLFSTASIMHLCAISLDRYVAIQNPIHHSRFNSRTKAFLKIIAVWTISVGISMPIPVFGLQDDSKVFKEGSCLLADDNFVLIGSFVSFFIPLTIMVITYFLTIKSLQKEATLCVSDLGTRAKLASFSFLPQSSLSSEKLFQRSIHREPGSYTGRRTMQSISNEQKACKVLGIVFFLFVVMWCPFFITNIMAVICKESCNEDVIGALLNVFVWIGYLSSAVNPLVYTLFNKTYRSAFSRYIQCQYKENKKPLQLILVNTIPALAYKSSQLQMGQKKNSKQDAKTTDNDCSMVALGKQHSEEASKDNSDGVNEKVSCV", "test": "Aequorin cell line functional assay, 5-HT2a", "type": "cell-based", "details": "human recombinant cell lines; FIG. 1; relevant plasma concentration (<0.5 μM)", "method": "(§2) Aequorin cell lines expressing the 5-HT2a, 5-HT2b and 5-HT2c non-edited (ne) recombinant receptors were used to evaluate the functional activity of eltoprazine. Aequorin cells grown 18 hours prior to the test in media without antibiotics were detached by gentle flushing with PBS-EDTA (5 mM EDTA), recovered by centrifugation and resuspended in “assay buffer” (DMEM/HAM's F12 with HEPES+0.1% BSA protease free). Cells were incubated at room temperature for at least 4 h with Coelenterazine h (Molecular Probes). The reference agonist used were 5-HT and a-methyl-5-HT. For agonist testing, 50 μl of cell suspension were injected on 50 μl of test compound or reference agonist plated in a 96-well plate. The resulting emission of light was recorded using the Hamamatsu Functional Drug Screening System 6000 (FDSS 6000)."}, "[5]": {"target": "T4, 5-HT2c non-edited (ne) recombinant receptor (Homo sapiens, UniProt P28335)", "T4 construct": "expressed in transfected cells", "T4 sequence (P28335 33-458)": "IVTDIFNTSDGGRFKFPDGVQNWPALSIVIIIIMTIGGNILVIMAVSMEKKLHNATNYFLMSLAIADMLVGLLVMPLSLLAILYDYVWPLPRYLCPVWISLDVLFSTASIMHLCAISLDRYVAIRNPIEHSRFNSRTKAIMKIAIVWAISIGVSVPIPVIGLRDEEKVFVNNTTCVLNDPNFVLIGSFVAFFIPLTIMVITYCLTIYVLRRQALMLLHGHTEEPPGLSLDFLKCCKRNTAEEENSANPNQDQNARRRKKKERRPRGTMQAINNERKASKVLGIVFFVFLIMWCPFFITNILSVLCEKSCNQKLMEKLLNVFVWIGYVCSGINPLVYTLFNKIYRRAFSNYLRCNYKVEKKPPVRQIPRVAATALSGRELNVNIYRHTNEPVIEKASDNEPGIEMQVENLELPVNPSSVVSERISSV", "test": "Aequorin cell line functional assay, 5-HT2c non-edited", "type": "cell-based", "details": "human recombinant cell lines; FIG. 1; relevant plasma concentration (<0.5 μM)", "method": "as §2"}, "dopamine D2 receptor": {"target": "dopamine D2 receptor (Homo sapiens, UniProt P14416)", "sequence (P14416 whole entry, species assumed)": "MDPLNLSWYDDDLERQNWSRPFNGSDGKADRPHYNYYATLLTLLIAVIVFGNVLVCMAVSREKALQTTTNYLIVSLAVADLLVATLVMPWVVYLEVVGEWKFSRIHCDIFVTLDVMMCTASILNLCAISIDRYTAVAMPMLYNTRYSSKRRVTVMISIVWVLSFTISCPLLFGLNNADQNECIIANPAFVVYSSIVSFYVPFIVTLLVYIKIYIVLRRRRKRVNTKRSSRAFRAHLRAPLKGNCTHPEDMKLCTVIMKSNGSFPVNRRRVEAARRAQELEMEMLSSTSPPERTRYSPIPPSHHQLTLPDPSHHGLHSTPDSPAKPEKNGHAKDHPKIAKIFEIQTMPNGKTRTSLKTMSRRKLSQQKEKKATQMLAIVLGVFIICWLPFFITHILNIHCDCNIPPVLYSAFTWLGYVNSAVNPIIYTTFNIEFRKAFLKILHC", "test": "Affinity for dopamine D2 receptor", "type": "binding"}, "[6]": {"tested_on": "unilaterally 6-OHDA-lesioned rats", "test": "L-DOPA-induced dyskinesia (AIM scores) in 6-OHDA-lesioned rat model of Parkinson's disease", "type": "in vivo", "details": "eltoprazine hydrochloride 0.08, 0.3, 1.25 and 5 mg/kg s.c.; after 21 days of L-DOPA; FIG. 2", "method": "(§3) Male Sprague Dawley rats (Elevage Janvier, Le Genest Saint Isle, France) weighing between 220 and 250 g at the beginning of the study are used in these experiments. They are housed under a 12-hr light/dark cycle with free access to standard pelleted food and tap water. Animal treatment and experimental procedures are approved by local ethical committees (Regierungspräsidium Darmstadt; Germany).\n(§4) Dopamine-denervating lesions are performed on rats anaesthetized with a 5:1 mixture of ketamine and xylazine (1 ml/kg, i.p.). […] The animals' turning behaviour is recorded in an automated rotometer (TSE Rotameter System, TSE—Systems GmbH, Bad Homburg, Germany) over a 90-min period after the intraperitoneal (i.p.) injection of 2.5 mg/kg dexamphetamine sulphate dissolved in saline. […]\nIn order to evaluate a the severity of LID, AIMs are recorded every second day as described by Cenci et al. (1998). […]\nEur J Neurosci 1998 10:2694-2706. […] Each rat is scored on a severity scale from 0 to 4 based on its frequency and persistence (1=occasional; 2=frequent; 3=continuous but interrupted by sensory distraction; 4=continuous, severe and not interrupted by sensory distraction). […]"}, "[7]": {"tested_on": "unilaterally 6-OHDA-lesioned rats", "test": "Turning behaviour induced by high dose of L-DOPA in 6-OHDA-lesioned rats", "type": "in vivo, rat", "details": "0.3, 1.25 and 5 mg/kg, 30 min before test, FIG. 3", "method": "as §3, §4\nIn order to evaluate the effect of eltoprazine on parkinsonian symptoms and its interaction with L-DOPA, rotational behaviour is evaluated. The numbers of ipsilateral and contralateral turns are recorded in an automated rotometer (TSE Rotameter System, TSE—Systems GmbH, Bad Homburg, Germany) over a period of 180 min. […]"}},
  "note": "Entries after “also recorded” stand apart in the source; their conditions may differ.",
  "data": [
    {"smiles": "COc1ccc2c(c1O[C@H]1CCNC1)CCC2", "note": "[Org 37684]", "values": [
      {"measurement": "effect in rodent models of depression", "setting": "[1]", "result": "positive effects"}
    ]},
    {"smiles": "C[C@H](N)Cn1ccc2cc(F)c(Cl)cc21", "note": "[Ro 60-0175]", "values": [
      {"measurement": "effect in rodent models of depression", "setting": "[1]", "result": "positive effects"}
    ]},
    {"smiles": "COc1ccc2[nH]cc(C3=CCNCC3)c2c1", "note": "[Ru-24969]", "values": [
      {"measurement": "effect on motor symptoms / side effects", "setting": "[2]", "result": "worsening of motor symptoms and/or development of side effects"}
    ]},
    {"smiles": "c1cc2c3c(c1)[C@H]1CCC[C@H]1N3CCNC2", "note": "[WAY-163909]", "values": [
      {"measurement": "effect in rodent models of depression", "setting": "[1]", "result": "positive effects"}
    ]},
    {"smiles": "CCc1cc2c(ccc3cnn(C[C@H](C)N)c32)o1", "note": "[YM348]", "values": [
      {"measurement": "effect in rodent models of depression", "setting": "[1]", "result": "positive effects"}
    ]},
    {"smiles": "c1cc2c(c(N3CCNCC3)c1)OCCO2", "note": "[eltoprazine, 1-(2,3-dihydro-1,4-benzodioxin-5-yl)piperazine]", "values": [
      {"measurement": "functional action on 5-HT1a receptor", "setting": "[3]", "result": "weak agonistic action"},
      {"measurement": "functional action on 5-HT1b receptor", "setting": "human 5-HT1b receptor", "result": "partial agonistic action"},
      {"measurement": "functional action on 5-HT2a receptor", "setting": "[4]", "result": "partial agonistic action"},
      {"measurement": "functional action on 5-HT2c receptor", "setting": "[5]", "result": "agonist"},
      {"measurement": "affinity for the dopamine D2 receptor", "setting": "dopamine D2 receptor", "result": "devoid of significant affinity"},
      {"measurement": "effect on AIM scores (L-DOPA-induced dyskinesia)", "setting": "[6]", "result": "significantly reverses, in a dose-dependent manner"},
      {"measurement": "interference with the antiparkinsonian effect of L-DOPA (turning behaviour)", "setting": "[7]", "result": "does not interfere with the antiparkinsonian effect of L-DOPA; also recorded: does not interfere with the anti-parkinsonian effect of L-DOPA"}
    ]},
    {"smiles": "Clc1cccc(N2CCNCC2)c1", "note": "[mCPP]", "values": [
      {"measurement": "effect in rodent models of depression", "setting": "[1]", "result": "positive effects"}
    ]}
  ]
}
